Patent publication US10231954B2, “Neurodegenerative therapies” (LYTIX BIOPHARMA AS, priority 2014, dated 2019)
Where two headings read alike, the source gives them in different places.

Legend:
Type in all cases: biochemical
CHK1 = biological target: T1, CHK1 (Homo sapiens, UniProt O14757); test: Kinase profiling CHK1; details: for remaining activity at 100 µM: read-out: residual kinase activity, CHK1
T1 sequence (O14757 1-476): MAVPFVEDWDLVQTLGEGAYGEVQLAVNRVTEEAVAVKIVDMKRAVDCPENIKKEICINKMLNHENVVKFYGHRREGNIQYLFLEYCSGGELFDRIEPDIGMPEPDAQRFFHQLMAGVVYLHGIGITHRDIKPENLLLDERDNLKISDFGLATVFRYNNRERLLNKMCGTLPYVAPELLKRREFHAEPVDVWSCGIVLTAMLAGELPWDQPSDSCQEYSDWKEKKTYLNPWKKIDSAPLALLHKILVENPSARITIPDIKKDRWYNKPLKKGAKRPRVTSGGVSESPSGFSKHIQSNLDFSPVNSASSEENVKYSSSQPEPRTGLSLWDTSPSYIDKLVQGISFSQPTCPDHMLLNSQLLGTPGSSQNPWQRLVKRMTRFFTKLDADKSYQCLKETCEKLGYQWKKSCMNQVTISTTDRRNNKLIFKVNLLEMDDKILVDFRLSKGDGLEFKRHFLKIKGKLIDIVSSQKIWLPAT
From the text: (§1) Any value less that 25 is considered to be highly significant inhibition.

BRSK1 = biological target: T2, BRSK1 (Homo sapiens, UniProt Q8TDC3); test: Kinase profiling BRSK1; details: for remaining activity at 100 µM: read-out: residual kinase activity, BRSK1
T2 sequence (Q8TDC3 1-778): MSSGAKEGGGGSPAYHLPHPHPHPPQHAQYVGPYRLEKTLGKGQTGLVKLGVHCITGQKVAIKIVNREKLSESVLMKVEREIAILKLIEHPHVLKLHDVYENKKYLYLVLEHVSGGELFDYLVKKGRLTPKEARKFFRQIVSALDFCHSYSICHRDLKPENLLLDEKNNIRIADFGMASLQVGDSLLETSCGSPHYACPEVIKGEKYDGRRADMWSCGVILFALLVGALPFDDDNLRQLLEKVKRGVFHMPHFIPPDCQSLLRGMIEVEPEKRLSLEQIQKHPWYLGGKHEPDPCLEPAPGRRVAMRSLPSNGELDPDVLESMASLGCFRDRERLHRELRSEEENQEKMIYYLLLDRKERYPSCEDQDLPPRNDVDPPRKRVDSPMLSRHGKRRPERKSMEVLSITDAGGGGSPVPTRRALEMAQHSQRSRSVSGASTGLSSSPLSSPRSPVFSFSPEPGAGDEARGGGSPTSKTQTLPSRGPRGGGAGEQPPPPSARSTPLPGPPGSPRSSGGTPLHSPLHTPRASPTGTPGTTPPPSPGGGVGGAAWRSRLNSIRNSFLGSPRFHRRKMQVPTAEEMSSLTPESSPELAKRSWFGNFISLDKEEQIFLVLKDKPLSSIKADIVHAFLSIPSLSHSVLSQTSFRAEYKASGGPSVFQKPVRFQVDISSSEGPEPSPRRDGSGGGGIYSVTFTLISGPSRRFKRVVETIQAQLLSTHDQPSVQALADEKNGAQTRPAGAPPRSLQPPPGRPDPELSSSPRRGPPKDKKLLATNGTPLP
From the text: as §1

GCK = biological target: T3, GCK (Homo sapiens, UniProt Q12851); test: Kinase profiling GCK; details: for remaining activity at 100 µM: read-out: residual kinase activity, GCK
T3 sequence (Q12851 1-820): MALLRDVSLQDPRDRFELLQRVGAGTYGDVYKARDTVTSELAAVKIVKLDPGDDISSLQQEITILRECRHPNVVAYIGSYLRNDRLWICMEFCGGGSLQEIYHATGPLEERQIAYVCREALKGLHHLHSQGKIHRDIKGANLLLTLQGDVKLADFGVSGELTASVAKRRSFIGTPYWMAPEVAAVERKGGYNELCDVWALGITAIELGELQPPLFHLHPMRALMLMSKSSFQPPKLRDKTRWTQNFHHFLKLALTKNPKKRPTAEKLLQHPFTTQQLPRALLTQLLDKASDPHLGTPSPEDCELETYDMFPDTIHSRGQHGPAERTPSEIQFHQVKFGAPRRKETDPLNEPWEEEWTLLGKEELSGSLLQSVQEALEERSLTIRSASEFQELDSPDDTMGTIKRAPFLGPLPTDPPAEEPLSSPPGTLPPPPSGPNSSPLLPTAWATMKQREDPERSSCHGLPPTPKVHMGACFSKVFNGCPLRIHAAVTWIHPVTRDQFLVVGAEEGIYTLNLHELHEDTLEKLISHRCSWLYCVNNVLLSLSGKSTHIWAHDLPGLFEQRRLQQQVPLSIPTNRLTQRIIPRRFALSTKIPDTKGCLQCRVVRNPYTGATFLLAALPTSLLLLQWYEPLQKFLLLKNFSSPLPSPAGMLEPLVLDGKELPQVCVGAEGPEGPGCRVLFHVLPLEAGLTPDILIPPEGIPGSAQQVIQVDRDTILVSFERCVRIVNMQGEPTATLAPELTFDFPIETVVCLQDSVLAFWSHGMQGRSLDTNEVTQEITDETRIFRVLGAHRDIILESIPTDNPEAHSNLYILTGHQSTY
From the text: as §1

CSK = CSK (Homo sapiens, UniProt P41240); test: Kinase profiling CSK; details: for remaining activity at 100 µM: read-out: residual kinase activity, CSK
Chain of CSK (P41240 whole entry, species assumed): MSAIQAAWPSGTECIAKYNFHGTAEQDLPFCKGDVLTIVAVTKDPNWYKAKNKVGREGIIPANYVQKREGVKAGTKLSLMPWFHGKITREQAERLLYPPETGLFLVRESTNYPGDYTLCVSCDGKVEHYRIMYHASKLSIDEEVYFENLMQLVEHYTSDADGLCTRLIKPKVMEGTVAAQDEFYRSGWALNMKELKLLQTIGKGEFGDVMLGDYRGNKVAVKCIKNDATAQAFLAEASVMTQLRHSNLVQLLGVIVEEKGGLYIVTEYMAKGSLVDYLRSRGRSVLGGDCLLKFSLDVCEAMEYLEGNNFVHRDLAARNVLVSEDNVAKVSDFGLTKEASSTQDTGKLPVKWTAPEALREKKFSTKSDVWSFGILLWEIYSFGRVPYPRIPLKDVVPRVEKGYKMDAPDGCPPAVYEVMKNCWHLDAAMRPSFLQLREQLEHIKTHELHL
From the text: as §1

FGF-R1 = FGF-R1 (Homo sapiens, UniProt P11362); test: Kinase profiling FGF-R1; details: for remaining activity at 100 µM: read-out: residual kinase activity, FGF-R1
Chain of FGF-R1 (P11362 22-822, species assumed): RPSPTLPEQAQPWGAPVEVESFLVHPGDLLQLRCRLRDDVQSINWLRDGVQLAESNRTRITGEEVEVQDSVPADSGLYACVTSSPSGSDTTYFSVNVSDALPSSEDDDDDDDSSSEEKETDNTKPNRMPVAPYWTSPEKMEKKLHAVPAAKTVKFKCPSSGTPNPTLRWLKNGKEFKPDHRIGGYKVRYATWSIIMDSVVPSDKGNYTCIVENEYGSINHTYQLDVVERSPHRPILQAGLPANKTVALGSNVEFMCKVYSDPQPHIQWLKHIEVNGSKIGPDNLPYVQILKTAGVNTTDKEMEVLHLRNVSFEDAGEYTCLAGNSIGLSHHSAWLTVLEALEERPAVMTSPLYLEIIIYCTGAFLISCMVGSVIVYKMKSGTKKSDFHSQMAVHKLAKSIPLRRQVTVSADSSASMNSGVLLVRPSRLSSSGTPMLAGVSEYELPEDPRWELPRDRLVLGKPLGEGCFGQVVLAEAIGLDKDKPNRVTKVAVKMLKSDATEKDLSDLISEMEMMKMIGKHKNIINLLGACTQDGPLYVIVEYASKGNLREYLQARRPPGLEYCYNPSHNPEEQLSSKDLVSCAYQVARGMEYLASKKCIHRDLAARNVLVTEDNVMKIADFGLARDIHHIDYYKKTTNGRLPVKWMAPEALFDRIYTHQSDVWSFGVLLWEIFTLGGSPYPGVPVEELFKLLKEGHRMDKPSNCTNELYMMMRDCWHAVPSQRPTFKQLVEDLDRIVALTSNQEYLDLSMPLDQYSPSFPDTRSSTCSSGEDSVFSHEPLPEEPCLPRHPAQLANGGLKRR
From the text: as §1

[1] = 100 micromolar inhibitor concentration, 100 is no change
[2] = 100 micromolar inhibitor, 100 = no change

Row | Compound | remaining activity at 100 µM (CHK1; [1]) [%] | remaining activity at 100 µM (BRSK1; [1]) [%] | remaining activity at 100 µM (GCK; [1]) [%] | remaining activity at 100 µM (CSK; [1]) [%] | remaining activity at 100 µM (FGF-R1; [1]) [%] | residual kinase activity, CHK1 (CHK1; [1]) | residual kinase activity, BRSK1 (BRSK1; [1]) | residual kinase activity, GCK (GCK; [1]) | residual kinase activity, CSK (CSK; [1]) | residual kinase activity, FGF-R1 (FGF-R1; [1]) | also measured
1 | CC(=O)Nc1nc2cc(O)ccc2s1 [Compound 01-66, N-(5-hydroxybenzo[d]thiazol-2-yl)acetamide] |  |  |  |  |  |  |  |  |  |  | remaining activity at 100 µM (CHK1): 75%; remaining activity at 100 µM (BRSK1): 48%; remaining activity at 100 µM (GCK): 32%; remaining activity at 100 µM (CSK): 92%; remaining activity at 100 µM (FGF-R1): 67%
2 | CC(=O)Nc1nc2ccc(O)cc2s1 [Compound 01-71] | 82 | 16 | 19 | 78 | 42 |  |  |  |  |  | 
3 | CC(=O)Nc1nc2ccc(C(F)(F)F)cc2s1 [Compound 01-90] | 97 | 83 | 15 | 61 | 40 |  |  |  |  |  | 
4 | CC(=O)Nc1nc2ccc(C#N)cc2s1 [Compound 01-94] | 96 | 62 | 11 | 83 | 51 |  |  |  |  |  | 
5 | CC(=O)Nc1cccc(NC(=O)c2nc3ccc(O)cc3s2)c1 [Compound 03-07, N-(3-acetamidophenyl)-6-hydroxybenzo[d]thiazole-2-carboxamide] |  |  |  |  |  |  |  |  |  |  | remaining activity at 100 µM (CHK1; [2]): 113%; remaining activity at 100 µM (BRSK1; [2]): 52%; remaining activity at 100 µM (GCK; [2]): 35%; remaining activity at 100 µM (CSK; [2]): 105%; remaining activity at 100 µM (FGF-R1; [2]): 66%
6 | O=C(Nc1nc2cc(O)ccc2s1)c1ccncc1 [Compound 03-11] |  |  |  |  |  | 78 | 70 | 33 | 94 | 74 | 
7 | O=C(Nc1nc2ccc(O)cc2s1)c1ccccn1 [Compound 03-12] |  |  |  |  |  | 90 | 63 | 29 | 101 | 16 | 
8 | O=C(Nc1nc2cc(O)ccc2s1)c1ccccn1 [Compound 03-13] |  |  |  |  |  | 88 | 95 | 39 | 95 | 81 | 
9 | COc1ccc2sc(NC(C)=O)nc2c1 [Compound 03-21] | 110 | 85 | 3 | 104 | 104 |  |  |  |  |  | 
10 | CC(=O)Nc1nc2ccccc2s1 [Compound 03-32] |  |  |  |  |  | 105 | 95 | 39 | 83 | 12 | 
11 | O=C(Nc1nc2cc(O)ccc2s1)c1cccnc1 [Compound 03-33] |  |  |  |  |  | 106 | 83 | 25 | 88 | 102 | 
12 | O=C(Nc1nc2ccc(O)cc2s1)c1ccccc1 [Compound 03-60] |  |  |  |  |  | 72 | 43 | 4 | 69 | 84 | 
13 | CC(=O)Nc1nc2cc(C(F)(F)F)ccc2s1 [Compound 03-73] | 110 | 83 | 36 | 91 | 109 |  |  |  |  |  | 
14 | CC(=O)Nc1nc2cc(C)ccc2s1 [Compound 03-76] |  |  |  |  |  | 102 | 75 | 35 | 101 | 106 | 
15 | CC(=O)Nc1nc2cc(F)ccc2s1 [Compound 03-77] | 103 | 78 | 8 | 98 | 103 |  |  |  |  |  | 
16 | O=C(Nc1nc2ccc(O)cc2s1)c1ccncc1 [Compound 08-42] |  |  |  |  |  | 70 | 56 | 27 | 89 | 54 | 
17 | O=C(Nc1nc2ccc(O)cc2s1)c1cccnc1 [Compound 08-44] |  |  |  |  |  | 78 | 45 | 31 | 83 | 56 | 
